Results as given in patent US20180353501A1 (Arvinas, Inc., priority 2017, published 2018).

Legend:
Assay in all cases: Western blot MAPK family degradation selectivity, MDA-MB-231 cells
Format in all cases: cell-based
Settings in all cases: increasing concentrations
ERK1 = molecular target: T1, ERK1 (Homo sapiens, UniProt P27361)
T1 construct: with increasing concentrations of exemplary compound 50 and 46 in MDA-MB-231 cells; endogenous in cells; host or cells: MDA-MB-231
Text: (§1) FIGS. 12A, 12B, and 12C. Characterization of MAPK family degradation selectivity (related to FIGS. 9A, 9B, 9C, 13A, 13B, 13C, and 13D). (A) p38 MAPK family members (α, β, δ, γ) were aligned using the T-Coffee multiple sequence alignment server. Output results were then colored according to conservation (dark turquoise) and identity (lighter shades of turquoise) in Jalview. (B) Table summarizing pairwise sequence alignments (obtained in Jalview) and structural alignments for Ca atoms (obtained in PyMOL) using the doublyphosphorylated (pTGpY) active conformations of p38δ (PDB: 4MYG), p38α (PDB: 3PY3), and p38γ (PDB: 1CM8). No active conformation crystal structure of p38β currently exists. […] MAPK families are also divided based on their phosphorylation lip motif, (pTxpY). Note: JNK1 and JNK2 are expressed as two alternatively-spliced forms. JNK3 was not expressed in these cells.
(§2) To address the mechanistic questions surrounding PROTAC substrate specificity was assessed by synthesizing eight foretinib-based PROTACs that vary by linker length and by orientation of the VHL-recruiting molecule. PROTACs 1 and 48-50 (termed the ‘amide series’) were constructed using the previously-characterized “left-hand side” amide as a connection point for linker attachment to the VHL ligand, while PROTACs 5 and 45-47 (termed the ‘phenyl series’) incorporated an under-explored “right-hand side” phenyl ring attachment point of the linker to the VHL ligand (FIGS. 9A and 9B). […] PROTACs synthesized with different linker lengths, using two different points of attachment to the VHL-recruiting ligand promote distinct E3 ligase interfaces with a given p38 isoform, thereby enabling potential degradation selectivity. Indeed, this strategy of differential orientation of recruited VHL coupled with different PROTAC linker lengths enabled the identification of two PROTACs that each selectively degrade only a single p38 MAPK isoform in MDA-MB-231 cells (FIG. 9C). The examplary compound 50 and exemplary compound 46 result in potent and selective degradation of p38α and p38δ, respectively, without an observable “hook effect” within the tested dose range. […] Crucially, the DC50 for exemplary compound 50 on p38δ is >5 μM, as is the DC50 of exemplary compound 46 for p38α. Additionally, neither exemplary PROTAC degrades either of the two remaining p38 MAPK isoforms (β and γ), despite high sequence and structural conservation.
(§3) Lysates from MDA-MB-231 cells were washed once with ice cold PBS (1×), followed by lysis in buffer containing 25 mM Tris [pH 7.5], 0.25% sodium deoxycholate, 1% Triton X-100, supplemented with 1× protease inhibitor cocktail (Roche) and phosphatase inhibitors (10 mM NaF, 1 mM Na3VO4, and 20 mM β-glycerophosphate), unless otherwise noted. Lysates were spun at 14,000×g for 10 minutes at 4° C. and supernatant was evaluated for protein content using a Pierce BCA Protein Assay (Thermo Fisher Scientific). 25 to 50 μg of protein was loaded onto 10% SDS-PAGE gels or 4-20% Criterion TGX precast gradient gels (Bio-Rad), transferred to nitrocellulose membranes, and probed with the specified antibodies overnight at 4° C. in 1×TBS-Tween (Tris buffered saline plus 0.02% Tween 20) containing 5% non-fat milk. Immunoblots were visualized using a Bio-Rad ChemiDoc imaging instrument and subsequently processed and quantified using the accompanying Bio-Rad ImageLab software.

ERK2 = molecular target: T2, ERK2 (Homo sapiens, UniProt P28482)
T2 construct: with increasing concentrations of exemplary compound 50 and 46 in MDA-MB-231 cells; endogenous in cells; host or cells: MDA-MB-231
Text: as §1, §2, §3

JNK1 = system: JNK1
Text: as §1, §2, §3

JNK2 = system: JNK2
Text: as §1, §2, §3

p38β = molecular target: T3, p38β (Homo sapiens, UniProt Q15759)
T3 construct: with increasing concentrations of exemplary compound 50 and 46 in MDA-MB-231 cells; endogenous in cells; host or cells: MDA-MB-231
Text: as §1, §2, §3

p38γ = molecular target: T4, p38γ (Homo sapiens, UniProt P53778)
T4 construct: with increasing concentrations of exemplary compound 50 and 46 in MDA-MB-231 cells; endogenous in cells; host or cells: MDA-MB-231
Text: as §1, §2, §3

T1 sequence (P27361 whole entry): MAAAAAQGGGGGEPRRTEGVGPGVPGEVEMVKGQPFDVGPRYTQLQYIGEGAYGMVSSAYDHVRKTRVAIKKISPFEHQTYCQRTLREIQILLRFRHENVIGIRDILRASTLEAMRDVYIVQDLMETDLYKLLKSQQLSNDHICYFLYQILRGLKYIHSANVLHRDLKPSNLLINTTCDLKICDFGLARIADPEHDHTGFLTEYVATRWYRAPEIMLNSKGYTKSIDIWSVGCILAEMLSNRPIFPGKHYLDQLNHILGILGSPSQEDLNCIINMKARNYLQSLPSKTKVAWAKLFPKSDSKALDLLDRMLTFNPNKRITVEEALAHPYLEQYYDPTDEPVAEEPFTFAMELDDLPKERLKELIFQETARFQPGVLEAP
T3 sequence (Q15759 whole entry): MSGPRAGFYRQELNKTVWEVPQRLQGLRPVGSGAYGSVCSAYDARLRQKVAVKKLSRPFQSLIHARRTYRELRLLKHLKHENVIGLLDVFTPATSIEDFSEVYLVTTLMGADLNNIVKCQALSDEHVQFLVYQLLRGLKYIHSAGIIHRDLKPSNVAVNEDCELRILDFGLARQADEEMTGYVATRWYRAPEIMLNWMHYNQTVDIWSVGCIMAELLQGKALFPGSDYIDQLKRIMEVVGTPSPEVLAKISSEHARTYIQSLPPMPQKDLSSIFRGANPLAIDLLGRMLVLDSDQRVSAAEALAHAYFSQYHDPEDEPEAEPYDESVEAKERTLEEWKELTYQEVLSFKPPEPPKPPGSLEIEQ
T2 sequence (P28482 whole entry): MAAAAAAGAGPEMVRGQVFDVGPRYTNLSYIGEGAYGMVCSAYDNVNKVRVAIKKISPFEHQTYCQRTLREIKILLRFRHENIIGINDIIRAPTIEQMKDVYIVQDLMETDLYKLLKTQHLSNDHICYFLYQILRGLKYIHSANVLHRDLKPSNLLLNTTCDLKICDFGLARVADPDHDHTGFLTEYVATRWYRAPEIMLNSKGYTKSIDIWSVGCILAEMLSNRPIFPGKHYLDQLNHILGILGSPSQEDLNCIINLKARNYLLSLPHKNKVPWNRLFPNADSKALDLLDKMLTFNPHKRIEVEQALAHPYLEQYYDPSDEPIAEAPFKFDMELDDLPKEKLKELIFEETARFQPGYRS
T4 sequence (P53778 whole entry): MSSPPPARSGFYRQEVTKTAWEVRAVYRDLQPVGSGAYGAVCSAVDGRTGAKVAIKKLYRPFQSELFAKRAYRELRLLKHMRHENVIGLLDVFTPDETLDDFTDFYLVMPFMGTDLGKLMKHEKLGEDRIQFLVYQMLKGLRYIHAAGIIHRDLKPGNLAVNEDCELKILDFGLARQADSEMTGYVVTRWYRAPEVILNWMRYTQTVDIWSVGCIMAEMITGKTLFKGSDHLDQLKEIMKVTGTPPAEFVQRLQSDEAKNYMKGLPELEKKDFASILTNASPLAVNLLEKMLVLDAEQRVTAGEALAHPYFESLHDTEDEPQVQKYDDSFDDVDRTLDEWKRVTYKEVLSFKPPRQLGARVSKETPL

COc1cc2c(Oc3ccc(NC(=O)C4(C(=O)Nc5ccc(F)cc5)CC4)cc3F)ccnc2cc1OCCOCCOCCOc1cc(-c2scnc2C)ccc1CNC(=O)[C@@H]1C[C@@H](O)CN1C(=O)[C@H](C(C)C)N1Cc2ccccc2C1=O [compound 46]
lack of degradation: degradation of ERK1 (ERK1) | degradation of ERK2 (ERK2) | degradation of JNK1 (JNK1) | degradation of JNK2 (JNK2) | degradation of p38β (p38β) | degradation of p38γ (p38γ)

COc1cc2c(Oc3ccc(NC(=O)C4(C(=O)Nc5ccc(F)cc5)CC4)cc3F)ccnc2cc1OCCCCOCCCCOCC(=O)N[C@H](C(=O)N1C[C@H](O)C[C@H]1C(=O)NCc1ccc(-c2scnc2C)cc1)C(C)(C)C [compound 50, N-(3-fluoro-4-((7-(4-(4-(2-(((S)-1-((2S,4R)-4-hydroxy-2-((4-(4-methylthiazol-5-yl)benzyl)carbamoyl)pyrrolidin-1-yl)-3,3-dimethyl-1-oxobutan-2-yl)amino)-2-oxoethoxy)butoxy)buto-xy)-6-methoxyquinolin-4-yl)oxy)phenyl)-N-(4-fluorophenyl)cyclopropane-1,1-dicarboxa-mide]
lack of degradation: degradation of ERK1 (ERK1) | degradation of ERK2 (ERK2) | degradation of JNK1 (JNK1) | degradation of JNK2 (JNK2) | degradation of p38β (p38β) | degradation of p38γ (p38γ)
